Source: patent US20100197591A1, “4-AMINO-7,8-DIHYDROPYRIDO[4,3-d]PYRIMIDIN-5(6H)-ONE DERIVATIVES” (pfizer Inc, priority 2009, published 2010)

These molecules were tested against T1, Human full-length diacylglycerol:acylCoA acyltransferase 1 (DGAT-1) (Homo sapiens, UniProt O75907) (assay: DGAT-1 Reduced Microsome Multidose Assay, G7329F Human IC50). Conditions: crude membrane fraction of Sf9 cells expressing human DGAT-1; [14C]decanoylCoA; apparent IC50, average where tested more than once.
T1 construct: Human full-length diacylglycerol:acylCoA acyltransferase 1 (DGAT-1) was expressed in Sf9 insect cells; made in house; host or cells: Sf9 insect cells (baculovirus); crude membrane/microsome fraction
T1 sequence (O75907 1-488): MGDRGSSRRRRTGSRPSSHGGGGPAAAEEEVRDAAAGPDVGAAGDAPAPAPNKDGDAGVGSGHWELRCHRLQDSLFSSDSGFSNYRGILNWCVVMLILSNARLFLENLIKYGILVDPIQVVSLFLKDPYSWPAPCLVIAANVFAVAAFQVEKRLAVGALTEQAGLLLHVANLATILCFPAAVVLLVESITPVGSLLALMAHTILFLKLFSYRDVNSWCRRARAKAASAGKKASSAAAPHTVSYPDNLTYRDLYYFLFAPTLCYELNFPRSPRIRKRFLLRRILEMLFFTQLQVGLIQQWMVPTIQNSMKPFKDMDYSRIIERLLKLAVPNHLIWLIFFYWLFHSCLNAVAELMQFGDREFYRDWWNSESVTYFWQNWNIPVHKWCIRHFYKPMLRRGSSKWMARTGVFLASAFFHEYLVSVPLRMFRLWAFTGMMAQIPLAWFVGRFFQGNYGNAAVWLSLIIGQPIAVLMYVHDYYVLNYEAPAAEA
Assay type: biochemical
Experimental: Human full-length diacylglycerol:acylCoA acyltransferase 1 (DGAT-1) was expressed in Sf9 insect cells which are then lysed and a crude membrane fraction (105,000×g pellet) was prepared. The DGAT-1 gene is a human DGAT-1 gene described in J Biol Chem 273:26765 (1998) and U.S. Pat. No. 6,100,077.
In vitro inhibition of DGAT-1 was measured using a modification, further described below, of the assay methodology described in U.S. Pat. No. 6,994,956 B2.
The cells were cultured as follows. Sf9 cells (20 L) were infected with 4 mL of DGAT-1 Baculovirus Infected Insect Cells (BIIC) for 72 hours in a Wave Bioreactor System 20/50P (Wave Biotec/GE Healthcare).
Crude DGAT-1 microsomes were prepared as follows. Cell pellets were washed once with ice-cold Dulbecco's phosphate-buffered saline. Cells were collected in tabletop centrifuge (Beckman GS-6KR), 15 minutes, 2000×g, 4° C. Twenty (20) mL of ice-cold Microsome Buffer (MB) was added per 5 g of cell pellet. The suspension was passed through a microfluidizer 3 times (18K psi). The lysate was transferred to centrifuge tubes and centrifuged for 20 minutes at 5000×g (Beckman-Coulter, Inc. Allegra® 64R High-Speed Refrigerated Benchtop Centrifuge, F0650 rotor) at 4° C. The supernatant was transferred to ultracentrifuge tubes and centrifuged at 125,000×g for 1 hour in a Beckman Ti-45 rotor, 4° C. The supernatant fluid was discarded. The pellet was resuspended in 70 mL of MB by sonication. The microsome concentration was determined using Bio-Rad Protein DC Protein Assay. The microsomes were filter sterilized with a 0.22 μm filter. The samples were portioned, flash frozen and stored at −80° C.
The Microsome Buffer, used for microsome preparation, was prepared by conventional means and contained 125 mM sucrose, 3 mM imidazole, 0.2 μg/mL aprotinin, 0.2 μg/mL leupeptin and 5 mM dithiothreitol (Cleland's reagent), DGAT-1 activity was measured in 384-well format in a total assay volume of 25 μl that contained, Hepes buffer (50 mM, pH 7.5), MgCl2 (10 mM), bovine serum albumin (0.6 mg/ml), [^14C]decanoylCoA (20 μM, 58 Ci/mol) and membranes (25 μg/ml) into which 1,2 dioleoyl-sn-glycerol (75 μM) in acetone has already been incorporated. Inhibitors in DMSO were pre-incubated with membranes before initiating the DGAT-1 reaction by the addition of decanoylCoA. […] The DMSO concentration was 2.5%. The inhibitors were present at a range of eight concentrations to generate an apparent IC50 for each compound. The eight inhibitor concentration employed ranged from 10 μM to 3 nM (from high to low concentration). Specifically, the eight concentrations used were 10 μM, 3 μM, 1 μM, 300 nM, 100 nM, 30 nM, 10 nM and 3 nM.
Reaction mixtures were neutralized by the addition of 15 μl of tris(hydroxy-methyl)aminomethane (1M, pH 8.0) and then mixed by trituration with 37.5 μl of Microscint™-E (Perkin Elmer). Plates contents were allowed to partition for 15 to 30 min before ^14C was measured in a scintillation spectrometer (Wallac Microbeta Trilux 1450-030 liquid scintillation counter 12 detector in the top-count DPM mode). Percent inhibition of test compounds was computed as […].
Four separate assays were performed using 4 different methods of analysis. The method of analysis of Assay 1 was the same as Assay 4 (described above) except microsomes were utilized at 25 μg/mL instead of 5 μg/mL. The method of analysis of Assay 2 was the same as Assay 4 (described above) except eleven (11) concentrations of inhibitor were employed instead of eight (8). The method of analysis of Assay 3 was the same as Assay 2 except the compounds were serially diluted in a different laboratory.
Where this DGAT-1 inhibition assay was performed on a compound more than once, an average is provided for that compound.

Going from CNC(=O)C(C)(C)c1ccc(N2CCc3nc(OC)nc(N)c3C2=O)cc1 [Example 3G, 2-[4-(4-amino-2-methoxy-5-oxo-7,8-dihydropyrido[4,3-d]pyrimidin-6(5H)-yl)phenyl]-N,2-dimethylpropanamide] to COc1nc(N)c2c(n1)CCN(c1ccc(C(C)(C)C(N)=O)cc1)C2=O [Example 3I, 2-[4-(4-amino-2-methoxy-5-oxo-7,8-dihydropyrido[4,3-d]pyrimidin-6(5H)-yl)phenyl]-2-methylpropanamide], the IC50 falls from 126 nM to 52.8 nM (2.4-fold). The second is the more potent here.

Compared with COc1nc(N)c2c(n1)CCN(c1ccc(C(C)(C)C(=O)N(C)C)cc1)C2=O [Example 3H, 2-[4-(4-amino-2-methoxy-5-oxo-7,8-dihydropyrido[4,3-d]pyrimidin-6(5H)-yl)phenyl]-N,N,2-trimethylpropanamide], COc1nc(N)c2c(n1)CCN(c1ccc(C(C)(C)NC(C)=O)cc1)C2=O [Example 8A, N-{1-[4-(4-amino-2-methoxy-5-oxo-7,8-dihydropyrido[4,3-d]pyrimidin-6(5H)-yl)phenyl]-1-methylethyl}acetamide] is 6-fold higher in IC50: 260 nM for the first, 1570 nM for the second.

Compared with COc1nc(N)c2c(n1)CCN(c1ccc(C(C)(C)c3ncnn3C)cc1)C2=O [Example 3K, 4-amino-2-methoxy-6-{4-[1-methyl-1-(1-methyl-1H-1,2,4-triazol-5-yl)ethyl]phenyl}-7,8-dihydropyrido[4,3-d]pyrimidin-5(6H)-one], COc1nc(N)c2c(n1)CCN(c1ccc(C(C)(C)c3ncn[nH]3)cc1)C2=O [Example 3N] is 10-fold lower in IC50: 795 nM for the first, 78.5 nM for the second. The second is the more potent here.

Compared with COc1nc(N)c2c(n1)CCN(c1ccc(C(C)(C)C#N)cc1)C2=O [Example 3O, 2-[4-(4-amino-2-methoxy-5-oxo-7,8-dihydropyrido[4,3-d]pyrimidin-6(5H)-yl)phenyl]-2-methylpropanenitrile], COc1nc(N)c2c(n1)CCN(c1ccc(C(C)(C)C(F)(F)F)cc1)C2=O [Example 6K, 4-amino-2-methoxy-6-[4-(2,2,2-trifluoro-1,1-dimethylethyl)phenyl]-7,8-dihydropyrido[4,3-d]pyrimidin-5(6H)-one] is 2.7-fold lower in IC50: 88.3 nM for the first, 32.7 nM for the second. The second is the more potent here.

Compared with COc1nc(N)c2c(n1)CCN(c1ccc(C(C)(C)c3nnn[nH]3)cc1)C2=O [Example 3P, 4-amino-2-methoxy-6-{4-[1-methyl-1-(1H-tetrazol-5-yl)ethyl]phenyl}-7,8-dihydropyrido[4,3-d]pyrimidin-5(6H)-one], COc1nc(N)c2c(n1)CCN(c1ccc(C(F)(F)F)cc1)C2=O [Example 6F, 4-amino-2-methoxy-6-[4-(trifluoromethyl)phenyl]-7,8-dihydropyrido[4,3-d]pyrimidin-5(6H)-one] is 16-fold higher in IC50: 20.9 nM for the first, 329 nM for the second.

Compared with COc1nc(N)c2c(n1)CCN(c1ccc(C(C)(C)CNC(C)=O)cc1)C2=O [Example 3U, N-{2-[4-(4-amino-2-methoxy-5-oxo-7,8-dihydropyrido[4,3-d]pyrimidin-6(5H)-yl)phenyl]-2-methylpropyl}acetamide], CCOc1nc(N)c2c(n1)CCN(c1ccc(C(C)(C)C)cc1)C2=O [Example 6D, 4-amino-6-(4-tert-butylphenyl)-2-ethoxy-7,8-dihydropyrido[4,3-d]pyrimidin-5(6H)-one] is 11-fold higher in IC50: 84.3 nM for the first, 899 nM for the second.

First: COc1nc(N)c2c(n1)CCN(c1cccc(C(C)C)c1)C2=O [Example 6B, 4-amino-6-(3-isopropylphenyl)-2-methoxy-7,8-dihydropyrido[4,3-d]pyrimidin-5(6H)-one]
Second: COc1nc(N)c2c(n1)CCN(c1cccc(C(C)(C)C)c1)C2=O [Example 6C, 4-amino-6-(3-tert-butylphenyl)-2-methoxy-7,8-dihydropyrido[4,3-d]pyrimidin-5(6H)-one]
The IC50 of the first is 23-fold higher: 873 nM for the first, 37.7 nM for the second.

Going from COc1nc(N)c2c(n1)CCN(c1ccc(C(C)C)cc1F)C2=O [Example 6G, 4-amino-6-(2-fluoro-4-isopropylphenyl)-2-methoxy-7,8-dihydropyrido[4,3-d]pyrimidin-5(6H)-one] to COc1nc(N)c2c(n1)CCN(c1ccc(C(C)(C)C)cc1F)C2=O [Example 6I, 4-amino-6-(4-tert-butyl-2-fluorophenyl)-2-methoxy-7,8-dihydropyrido[4,3-d]pyrimidin-5(6H)-one], the IC50 falls from 19.8 nM to 4.9 nM (4-fold).

First: COc1nc(N)c2c(n1)CCN(c1ccc(C(C)(C)C)c(F)c1)C2=O [Example 6H, 4-amino-6-(4-tert-butyl-3-fluorophenyl)-2-methoxy-7,8-dihydropyrido[4,3-d]pyrimidin-5(6H)-one]
Second: COc1nc(N)c2c(n1)CCN(c1ccc(Cl)c(F)c1)C2=O [Example 9D, 4-amino-6-(4-chloro-3-fluorophenyl)-2-methoxy-7,8-dihydropyrido[4,3-d]pyrimidin-5(6H)-one]
The IC50 of the first is 8-fold lower: 12.6 nM for the first, 101 nM for the second.

First: COc1nc(N)c2c(n1)CCN(c1ccc3c(c1)N(C)C(=O)C3(C)C)C2=O [Example 6J, 4-amino-2-methoxy-6-(1,3,3-trimethyl-2-oxo-2,3-dihydro-1H-indol-6-yl)-7,8-dihydropyrido[4,3-d]pyrimidin-5(6H)-one]
Second: COc1nc(N)c2c(n1)CCN(c1ccc(Cl)c(Cl)c1)C2=O [Example 9A, 4-amino-6-(3,4-dichlorophenyl)-2-methoxy-7,8-dihydropyrido[4,3-d]pyrimidin-5(6H)-one]
The IC50 of the first is 3.7-fold higher: 256 nM for the first, 68.9 nM for the second. The second is the more potent here.

Going from COc1nc(N)c2c(n1)CCN(c1ccc([C@H]3CC[C@H](Cc4nc(C)no4)CC3)c(F)c1)C2=O [Example 7E, 4-amino-6-(3-fluoro-4-{trans-4-[(3-methyl-1,2,4-oxadiazol-5-yl)methyl]cyclohexyl}phenyl)-2-methoxy-7,8-dihydropyrido[4,3-d]pyrimidin-5(6H)-one] to COc1nc(N)c2c(n1)CCN(c1ccc3c(c1)OCCO3)C2=O [Example 9B, 4-amino-6-(2,3-dihydro-1,4-benzodioxin-6-yl)-2-methoxy-7,8-dihydropyrido[4,3-d]pyrimidin-5(6H)-one], the IC50 rises from 38.7 nM to 104 nM (2.7-fold).

COc1nc(N)c2c(n1)CCN(c1ccccc1)C2=O [Example 9C, 4-amino-2-methoxy-6-phenyl-7,8-dihydropyrido[4,3-d]pyrimidin-5(6H)-one] and COc1nc(N)c2c(n1)CCN(c1ccc(Cl)cc1)C2=O [Example 9F, 4-amino-6-(4-chlorophenyl)-2-methoxy-7,8-dihydropyrido[4,3-d]pyrimidin-5(6H)-one] are within 1.5-fold of each other in IC50: 594 nM for the first, 747 nM for the second.

COc1nc(N)c2c(n1)CCN(c1ccc(OC(C)C)cc1)C2=O [Example 9G, 4-amino-6-(4-isopropoxyphenyl)-2-methoxy-7,8-dihydropyrido[4,3-d]pyrimidin-5(6H)-one] gave an IC50 of 102 nM.
